EC50, Dead mice/test mice and inhibition data for 20 compounds are collected here from patent publication US7932281B2, “Amine-based compound and use thereof” (Kureha Corporation, priority 2004, dated 2011).

The test system of data set [1] is HIV-1IIIB infected MT-4 cells. Put plainly: Anti-HIV activity, HIV-1IIIB infected MT-4 cells, MTT method (Test Example 1). To be noted: Human immunodeficiency virus 1, MT4, 120 h, concentration required for inhibition of cell disorder due to HIV infection by 50%, MOI 0.01, 5 days. Format: cell-based. As to the method:
Immediately after infection, HIV-1IIIB infected MT-4 cells (3.0×10^4/well, MOI (Multiplicity of infection): 0.01) were added to a 96-well microtiter plate together with the test compounds having different concentrations. The cells were cultured in a carbon dioxide incubator at 37° C. for 5 days, and the number of living cells was measured in accordance with the MTT (tetrazolium) method ([…], et al., J. of Virol. Method, 20, 309-321 […]). The antiviral activity is represented by the concentration required for inhibition of cell disorder due to HIV infection by 50% (EC50: 50% Effective Concentration) (μM), and the results are shown in Table 2.

The subject of a further data set is SD mice. Description: Acute toxicity, single transvenous administration (Test Example 3). Format: in vivo. The following applies: 6-week-old male SD mice, 2.5 mg/kg transvenously once in physiological saline. As to the method: The aforementioned compound was examined for acute toxicity. Specifically, 6-week-old SD mice (male) were divided into several groups (2 to 3 mice in each group). Subsequently, each of the compounds of Examples was dissolved in a physiological saline solution, and the solution was transvenously administered to the mice (dose: 2.5 mg/kg) once. Then, the number of dead mice was counted.

The target in the next data set is T1, CXCR4 (Homo sapiens, UniProt P61073).
T1 construct: endogenous in cells; host or cells: MT-4 cells
Put plainly: Inhibition of 125I-SDF-1α binding to receptors CXCR4 on MT-4 cells (Test Example 2). The following applies: binding-inhibition % at 0.01 μM, 2 hours under ice-cooling, read-out: Inhibition rate (%). As to the method: MT-4 cells (5×10^6/0.2 ml/well) were cultured on a 24-well microtiter plate. After the cells were incubated for 24 hours at 37° C. in a carbon dioxide gas incubator, a culture medium was replaced with a buffer solution (0.1% BSA-containing RPMI-1640). Together with a ligand ^125I-SDF-1α (specific activity: 2,200 Ci/mmol; available from Daiichi Pure Chemicals Co., Ltd. (Tokyo)), test materials with various concentrations were subjected to a binding reaction for 2 hours under ice-cooling. […] Then, a rate of inhibition of the binding between radioactive ligands and receptors CXCR4 by a test material was calculated (a binding-inhibition % at 0.01 μM).

T1 sequence (P61073 whole entry): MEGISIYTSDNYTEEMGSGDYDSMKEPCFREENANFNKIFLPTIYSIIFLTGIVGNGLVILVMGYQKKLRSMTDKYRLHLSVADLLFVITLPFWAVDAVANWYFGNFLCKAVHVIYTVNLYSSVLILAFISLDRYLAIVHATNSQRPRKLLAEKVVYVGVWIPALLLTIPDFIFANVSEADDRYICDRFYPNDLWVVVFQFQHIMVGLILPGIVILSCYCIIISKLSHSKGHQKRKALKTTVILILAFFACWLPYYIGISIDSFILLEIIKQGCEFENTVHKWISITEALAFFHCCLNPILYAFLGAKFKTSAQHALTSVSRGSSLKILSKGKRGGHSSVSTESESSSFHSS

In the case of `CCCN(CCC)Cc1ccc(NC(=O)c2ccc(CN(Cc3ccc(CC)cn3)Cc3nccn3C)cc2)cc1` [Compound No. 16, 4-{[(5-ethyl-pyridin-2-ylmethyl)-(1-methyl-1H-imidazol-2-ylmethyl)-amino]-methyl}-N-(4-dipropylaminomethyl-phenyl)-benzamide], the response in data set [1] was half-maximal at 3 nM (EC50). The Dead mice/test mice in the data set on SD mice was 0/3. Besides, the inhibition at 0.01 µM on CXCR4 is 46.9%.
In the case of `CCCN(CCC)CCCCN(C)C(C(=O)OCC)c1ccc(CN(Cc2ncc[nH]2)Cc2nccn2C)cc1` (stereo not shown) [Compound No. 119, [(4-dipropylamino-butyl)-methyl-amino]-(4-{[(1H-imidazol-2-ylmethyl)-(1-methyl-1H-imidazol-2-ylmethyl)-amino]-methyl}-phenyl)-acetic acid ethyl ester], a half-maximal effect in data set [1] (EC50) was put at 4 nM. For the same compound, the inhibition at 0.01 µM at CXCR4 was determined as 72.7%.
As for `CCCN(CCC)CCCCN(CC(=O)O)Cc1ccc(CN(Cc2nccn2C)Cc2nccn2C)cc1` [Compound No. 100, [(4-[[bis-(1-methyl-1H-imidazol-2-ylmethyl)-amino]-methyl]-benzyl)-(4-dipropylamino-butyl)-amino]-acetic acid], in data set [1], the EC50 was 2 nM. The Dead mice/test mice in the data set on SD mice was 0/3. For the same compound, the inhibition at 0.01 µM at CXCR4 turned out to be 79.2%.
For `CCCN(CCC)CCCCN(C)C(=O)N(C)c1ccc(CN(Cc2ncc[nH]2)Cc2nccn2C)cc1` [Compound No. 27, 1-(4-dipropylamino-butyl)-3-(4-{[(1H-imidazol-2-ylmethyl)-(1-methyl-1H-imidazol-2-ylmethyl)-amino]-methyl}-phenyl)-1,3-dimethyl-urea], in that order: 230 nM, 0/3 and 43.4%.
For `CCCN(CCC)CCCCN(CCO)Cc1ccc(CN(Cc2ncc[nH]2)Cc2nccn2C)cc1` [Compound No. 1, 2-[(4-dipropylamino-butyl)-(4-{[(1H-imidazol-2-ylmethyl)-(1-methyl-1H-imidazol-2-ylmethyl)-amino]-methyl}-benzyl)-amino]-ethanol], in that order: 3 nM, 0/3 and 87.9%.
For `CCCN(CCC)CCCc1cccc(-c2ccc(CN(Cc3ncc[nH]3)Cc3nccn3C)cc2)n1` [Compound No. 36, {3-[6-(4-{[(1H-imidazol-2-ylmethyl)-(1-methyl-1H-imidazol-2-ylmethyl)-amino]-methyl}-phenyl)-pyridin-2-yl]-propyl}-dipropyl-amine], in that order: 656 nM, 0/3 and 58%.
In turn, `CCCN(CCC)CCOCCN(C)Cc1ccc(CN(Cc2ncc[nH]2)Cc2nccn2C)cc1` [Compound No. 109, (2-{2-[(4-{[(1H-imidazol-2-ylmethyl)-(1-methyl-1H-imidazol-2-ylmethyl)-amino]-methyl}-benzyl)-methyl-amino]-ethoxy}-ethyl)-dipropyl-amine] had an EC50 in data set [1] of 4 nM. Also, on CXCR4, the inhibition at 0.01 µM was determined as 94.3%.
In turn, `CCCN(CCC)CCCCNC(=S)Nc1ccc(CN(Cc2ncc[nH]2)Cc2nccn2C)cc1` [Compound No. 35, 1-(4-dipropylamino-butyl)-3-(4-{[(1H-imidazol-2-ylmethyl)-(1-methyl-1H-imidazol-2-ylmethyl)-amino]-methyl}-phenyl)-thiourea] came in with an EC50 in data set [1] of 7 nM. In the data set on SD mice, the Dead mice/test mice is given as 0/3. The inhibition at 0.01 µM on CXCR4 came to 86.3%.
For `CCCN(CCC)CCCCN(Cc1ccc(CN(Cc2ncc[nH]2)Cc2nccn2C)cc1)CC(F)(F)F` [Compound No. 31, N-(4-{[(1H-imidazol-2-ylmethyl)-(1-methyl-1H-imidazol-2-ylmethyl)-amino]-methyl}-benzyl)-N′,N′-dipropyl-N-(2,2,2-trifluoro-ethyl)-butane-1,4-diamine], in that order: 74 nM, 0/3 and 47.3%.
As for `CCCN(CCC)Cc1ccc(-c2nc3ccc(CN(Cc4ncc[nH]4)Cc4nccn4C)cc3n2C)cc1` [Compound No. 29, [4-(6-{[(1H-imidazol-2-ylmethyl)-(1-methyl-1H-imidazol-2-ylmethyl)-amino]-methyl}-1-methyl-1H-benzimidazol-2-yl)-benzyl]-dipropyl-amine], the EC50 in data set [1] is 61 nM. Besides, the Dead mice/test mice with SD mice is given as 0/3. Moreover, the inhibition at 0.01 µM on CXCR4 was determined as 71.2%.
For `CCCN(CCC)CCCc1nc2ccc(CN(Cc3ncc[nH]3)Cc3nccn3C)cc2n1CCC` [Compound No. 46, [3-(6-{[(1H-imidazol-2-ylmethyl)-(1-methyl-1H-imidazol-2-ylmethyl)-amino]-methyl}-1-propyl-1H-benzimidazol-2-yl)-propyl]-dipropyl-amine], in that order: 17 nM, 0/3 and 74.6%.
For `CCCN(CCC)CCCCc1nc2cc(CN(Cc3ncc[nH]3)Cc3nccn3C)ccc2n1CCC` [Compound No. 5, [4-(5-{[(1H-imidazol-2-ylmethyl)-(1-methyl-1H-imidazol-2-ylmethyl)-amino]-methyl}-1-propyl-1H-benzimidazol-2-yl)-butyl]-dipropyl-amine], in that order: 9 nM, 0/3 and 67%.
For `CCCN(CCC)Cc1ccc(NC(=O)c2ccc(CN(Cc3ncc(C)cc3C)Cc3nccn3C)cc2)cc1` [Compound No. 15, 4-{[(3,5-dimethyl-pyridin-2-ylmethyl)-(1-methyl-1H-imidazol-2-ylmethyl)-amino]-methyl}-N-(4-dipropylaminomethyl-phenyl)-benzamide], in that order: 6 nM, 0/3 and 74%.
In turn, `CCCN(CCC)CCCCN(C)Cc1ccc(CNCc2nccn2Cc2nccn2C)cc1` [Compound No. 10] displayed an EC50 in data set [1] of 9 nM. In the data set with SD mice, the Dead mice/test mice was 0/3. Moreover, the inhibition at 0.01 µM at CXCR4 worked out at 20.4%.
For `CCCN(CCC)CCCCNC(=O)c1ccc(CN(Cc2ccc(C)cn2)Cc2nccn2C)cc1` [Compound No. 20, N-(4-dipropylamino-butyl)-4-{[(1-methyl-1H-imidazol-2-ylmethyl)-(5-methyl-pyridin-2-ylmethyl)-amino]-methyl}-benzamide], in that order: 4 nM, 0/3 and 73.2%.
For `CCCN(CCC)CCCCN(CC(=O)OC)Cc1ccc(CN(Cc2ncc[nH]2)Cc2ncc[nH]2)cc1` [Compound No. 87, [(4-[[bis-(1H-imidazol-2-ylmethyl)-amino]-methyl]-benzyl)-(4-dipropylamino-butyl)-amino]-acetic acid methyl ester], in that order: 3 nM, 0/3 and 82.1%.
With `CCCN(CCC)CCCCN(Cc1ccc(CN(Cc2ncc[nH]2)Cc2nccn2C)cc1)S(=O)(=O)c1ccc(C)cc1` [Compound No. 22, N-(4-dipropylamino-butyl)-N-(4-{[(1H-imidazol-2-ylmethyl)-(1-methyl-1H-imidazol-2-ylmethyl)-amino]-methyl}-benzyl)-4-methyl-benzenesulfonamide], the response in data set [1] was half-maximal at 106 nM (EC50). In the data set on SD mice, the Dead mice/test mice is reported as 0/3. Further, the inhibition at 0.01 µM on CXCR4 was determined as 84.3%.
For `CCCN(CCC)CCCCN(C)Cc1ccc(CN(Cc2ncc[nH]2)Cc2nccn2C)cc1C(=O)O` [Compound No. 122, 2-{[(4-dipropylamino-butyl)-methyl-amino]-methyl}-5-{[(1H-imidazol-2-ylmethyl)-(1-methyl-1H-imidazol-2-ylmethyl)-amino]-methyl}-benzoic acid], the response in data set [1] was half-maximal at 4 nM (EC50). The inhibition at 0.01 µM on CXCR4 worked out at 71.3%.
For `CCCN(CCC)CCCCN(C)C(C(=O)O)c1ccc(CN(Cc2ncc[nH]2)Cc2nccn2C)cc1` (stereo not shown) [Compound No. 120, [(4-dipropylamino-butyl)-methyl-amino]-(4-{[(1H-imidazol-2-ylmethyl)-(1-methyl-1H-imidazol-2-ylmethyl)-amino]-methyl}-phenyl)-acetic acid], in that order: 4 nM and 79.7%.
For the compound `CCCN(CCC)CCCCN(Cc1ccc(CN(Cc2ncc[nH]2)Cc2nccn2C)cc1)Cc1nnn[nH]1` [Compound No. 110, N-(4-{[(1H-imidazol-2-ylmethyl)-(1-methyl-1H-imidazol-2-ylmethyl)-amino]-methyl}-benzyl)-N′,N′-dipropyl-N-(1H-tetrazol-5-ylmethyl)-butane-1,4-diamine], the EC50 in data set [1] worked out at 4 nM. In addition, the inhibition at 0.01 µM on CXCR4 was found to be 71.4%.

Usually EC50 stands for the concentration giving half of the maximal effect. A high value points to a need for much substance. The inhibition is the share of the control response that was lost under treatment.
